From PMC4784888, “Activity Based High-Throughput Screening for Novel O-GlcNAc Transferase Substrates Using a Dynamic Peptide Microarray” (PLoS ONE, 2016)
Where no end group is shown, it is not given here.

Assays:
Format in all cases: biochemical, human
m-OGT = assay: UDP-Glo assay of RBL-2_410–422 peptides
Experimental: (§1) One step OGT purification was performed using His60 Ni Gravity Flow Columns (Clontech) according to the manufacturer’s instructions. Briefly, the nickel column was equilibrated with a buffer containing 50 mM sodium phosphate, 300 sodium chloride, 20 mM imidazole, and pH 7.4, followed by incubation with cell lysate containing His tag OGT for 1h at 4°C. After washing several times using buffer containing 50 mM sodium phosphate, 300 sodium chloride, 40 mM imidazole, and pH 7.4, the recombinant OGT was eluted using elution buffer containing 50 mM sodium phosphate, 300 mM sodium chloride, 300 mM imidazole, and pH 7.4. The eluted fraction was concentrated through a 100,000 Da molecular weight cut off Amicon unit by centrifugation 10 min at 5000 RPM at 4°C.
In this work OGT activity was also determined using UDP-Glo™ Glycosyltransferase Assay according to the manufacturer’s instructions. This assay evaluates O-GlcNAcylation through monitoring UDP formation in glycosyltransferase reactions by luminescence. Briefly, OGT reactions were carried out in 100 μL final volume containing 0.5 mM UDP-GlcNAc, 6 μg purified/60 μg lysate enzyme, 100 μM peptide in OGT reaction buffer (50 mM Tris—HCl, pH 7.5;1 mM DTT;12.5 mM MgCl2). Reactions were incubated at room temperature for 2h. At the end of that period, each reaction was transferred in triplicate into a 96-well white microplate and was mixed with a 1:1 ratio of UDP-Glo Detection Reagent. After incubation at room temperature for 1h, the luminescence was recorded with a Mithras LB940 Multimode microplate reader using Mikro Win 2000 software (Berthold Technology, Germany).
To further confirm this and investigate the role of this and surrounding amino acid residues in our activity based assay, we resynthesized the RBL-2 peptide present on the microarray and performed an Ala scan, thus replacing of all the possible O-GlcNAc sites (Ser and Thr) in RBL-2_420–422 (Fig 4A). To immobilize the peptides on the chip, all the peptides were prepared with an extra CG at the NH2 terminal to allow immobilization on the maleimide-based chip surface. Cys 415 was replaced by an Ala to avoid cyclisation by disulfide bond formation or dual modes of immobilization (S2 Fig). […] The mutants T421A decreased the O-GlcNAcylation of RBL-2_420–422 peptide by 40% compared to the control (wild type with C415A). […] In addition, OGT activity against these peptides was further validated using the UDP-Glo assay, which measures the amount of UDP produced when GlcNAc is transferred from UDP-GlcNAc to the sugar accepting peptide. […] This might be because the UDP assay is more sensitive than the antibody-based detection.
Fig 4 S420A is a possible O-GlcNAc site in the RBL-2 protein. A, peptide mutant used for an Ala scan. For immobilization purposes, peptides were prepared with an extra CG at the N-terminus and Cys 415 was replaced by Ala. B, OGT activity against RBL-2_410–422 peptide mutants was determined using peptide microarray analysis with 0.2 μg/μL purified m-OGT and 1 mM UDP-GlcNAc. C, UDP-Glo assay was used to measure O-GlcNAcylation of RBL-2_410–422 peptide mutants as well. D, kinetic signals from the same microarray experiment of panel B are shown.
O-GlcNAcylation of wild type RBL-2-410-422 and C415A peptide was determined using both the UDP assay(A) and the microarray assay (B) with 1 mM UDP-GlcNAc and 0.2 μg/μL purified m-OGT. […] (TIF) Click here for additional data file.

purified m-OGT [1] = assay: Ala scan of RBL-2_410–422 on peptide microarray; details: 1 mM UDP-GlcNAc, 0.2 μg/μL purified m-OGT; for OGT activity against RBL-2_410–422 Ala mutants (in words): extra CG at NH2 terminal
Experimental: as §1
(§2) Peptide O-GlcNAcylation was assessed using PamChip 4 microarray chips with a PamStation 12 instrument (Pamgene international, The Netherlands). The OGT enzyme reaction was prepared essentially as described[26] with minor modifications. Briefly, before addition of the enzyme reaction, the microarray was blocked with blocking buffer (1% BSA in TBS). After 30 cycles (2 cycles/min) blocking, the blocking buffer was aspirated and the microarray was incubated with 40 μL of the enzyme reaction containing OGT (lysate or purified), OGT reaction buffer (50 mM Tris—HCl, pH 7.5;1 mM DTT;12.5 mM MgCl2), a 1:1 pre-incubated mixture of anti-O-GlcNAc and FITC conjugated secondary antibody, and the sugar donor UDP-GlcNAc or water as a control for 480 cycles (2 cycles/min) at 30°C. The microarray was run in parallel by pumping the reaction up and down through the porous membrane at every cycle and a tiff image was obtained at every 20 cycles by a CCD camera inside the PamStation. O-GlcNAcylation of each peptide was detected by a fluorescent signal which was produced by an FITC conjugated antibody bound to the O-GlcNAc moiety on the peptide.
(§3) Image analysis was performed using BioNavigator 6 software (Pamgene international, The Netherlands). Briefly, each image was quantified by automated array grid finding and subsequent quantification of signal and local background for each individual spot. In this work, the signal median-minus-background value was used as the quantitative parameter for the O-GlcNAcylation of the peptide.
Synthesis of all the peptides was achieved by following a standard Fmoc SPPS strategy on a Symphony Multiple Peptide Synthesizer and starting from rink amide resin. The following Fmoc amino acids were used: Fmoc-Cys(Trt)-OH, Fmoc-Gly-OH, Fmoc-Lys(Boc)-OH, Fmoc-Glu(Otbu)-OH, Fmoc-Asn(Trt)-OH, Fmoc-Ser(tBu)-OH, Fmoc-Thr(tBu)-OH, Fmoc-Ala-OH, Fmoc-Pro-OH, Fmoc-Val-OH. Deprotection was performed using 20% piperidine in DMF, and coupling was performed using 1:0.9:2 amino acid/ HBTU/DIPEA in DMF. After completion of the synthesis, the protected peptidyl resins were incubated with a 10 mL mixture of TFA (trifluoroacetic acid): H2O: triisopropylsilane (TIPS): 1, 2-ethanedithiol (EDT) (9:0.5:0.25:0.25, v/v/v/v) and allowed to stir for 2 h at room temperature under a nitrogen atmosphere. The cleaving mixture was filtered and the resin was washed with TFA (2 mL) and DCM (4 mL). The residue was precipitated by treatment of precooled diethyl ether and centrifugation. Two times washing and centrifugation yielded the crude products in a pellet. The precipitated peptides were dissolved in water, frozen, and lyophilized. All products were stored at -20°C. Crude peptide analysis was carried out by LC-MS.
To further confirm this and investigate the role of this and surrounding amino acid residues in our activity based assay, we resynthesized the RBL-2 peptide present on the microarray and performed an Ala scan, thus replacing of all the possible O-GlcNAc sites (Ser and Thr) in RBL-2_420–422 (Fig 4A). To immobilize the peptides on the chip, all the peptides were prepared with an extra CG at the NH2 terminal to allow immobilization on the maleimide-based chip surface. […]

purified m-OGT [2] = assay: Inhibition of OGT activity by RBL-2_S420A 410–422 peptide on nuclear receptor interaction peptide microarray; details: purified m-OGT (0.2 μg/μL), UDP-GlcNAc 0.5 mM; for inhibition of OGT activity (in words): peptide 0.5 mM
Experimental: as §1, §2, §3
We then used the identified substrate sequence as a starting point towards the discovery of novel selective OGT inhibitors. […] To test it, we determined its inhibitory effect on the O-GlcNAcylation of two OGT substrates identified in our work and a known OGT inhibitor was used as a positive control.
Fig 5 The RBL-2_S420A 410–422 peptide inhibited OGT activity. The inhibitory effect of RBL-2_S420A 410–422 peptide on OGT activity was determined on the nuclear receptor interaction peptide microarray. […]

[3] = UDP-Glo, luminescence, 0.5 mM UDP-GlcNAc, 6 μg purified enzyme, 100 μM peptide, 50 mM Tris-HCl pH 7.5, room temperature 2 h, triplicate
[4] = microarray, control wild type with C415A

## C415A: RBL-2_410–422 peptide with Cys 415 replaced by an Ala (CGKENSPAVTPVSTA-NH2; UniProt Q08999 410-422, looked up, variant C415A)
m-OGT; UDP assay, 1 mM UDP-GlcNAc, 0.2 μg/μL purified m-OGT
  OGT activity of C415A compared with wild type, UDP assay: modest increase in OGT activity
Purified m-OGT [1]; UDP assay and microarray
  C415A effect on O-GlcNAcylation, overall statement: modest effect on O-GlcNAcylation

## RBL-2_S420A 410–422: S420A mutation peptide of RBL-2 410–422 tested as OGT inhibitor (CGKENSPAVTPVATA-NH2)
Purified m-OGT [2]; 500 μM S420A peptide, NCOA6_1479–1501 substrate
  inhibition of O-GlcNAcylation of NCOA6: 50%
Purified m-OGT [2]; 500 μM S420A peptide, WIPI 1 substrate
  inhibition of O-GlcNAcylation of WIPI 1: 50%
Purified m-OGT [2]
  inhibition of OGT activity (in words): still binds to the OGT active site and therefore inhibited OGT activity
Purified m-OGT [2]; listed as RBL-2_S420A 420–422
  inhibition of OGT activity (in words): significant inhibition of OGT activity

## S413A: Ala scan mutant of RBL-2_410–422
m-OGT; [3]
  O-GlcNAcylation activity in solution (in words): consistent with the microarray results
Purified m-OGT [1]; [4]
  OGT activity against RBL-2_410–422 Ala mutants (in words): did not show any effect

## S420A: Ala scan mutant of RBL-2_410–422 (CGKENSPAVTPVATA-NH2)
m-OGT; [3]
  O-GlcNAcylation activity in solution (in words): consistent with the microarray results
Purified m-OGT [1]; [4]
  OGT activity against RBL-2_410–422 Ala mutants (in words): complete loss of OGT activity

## T417A: Ala scan mutant of RBL-2_410–422 (CGKENSPAVAPVSTA-NH2)
m-OGT; [3]
  remaining O-GlcNAcylation: 20%
Purified m-OGT [1]; [4]
  OGT activity against RBL-2_410–422 Ala mutants (in words): complete loss of OGT activity

## T421A: Ala scan mutant of RBL-2_410–422 (CGKENSPAVTPVSAA-NH2)
m-OGT; [3]
  O-GlcNAcylation activity in solution (in words): consistent with the microarray results
Purified m-OGT [1]; [4]
  decrease of O-GlcNAcylation compared to control: 40%
